By inhibition is commonly meant how much of the control response was suppressed. By EC50 is commonly meant the concentration needed to bring the measured effect to its halfway point.

Consider 30 compounds from patent US12551478B2, “Quinoline derivative having indoleamine-2,3-dioxygenase inhibitory activity” (SHENZHEN CHIPSCREEN BIOSCIENCES CO., LTD., priority 2018, dated 2026).

For this assay, the target named is T1, human indoleamine 2,3-dioxygenase 1 (hIDO1) (Homo sapiens, UniProt P14902).
T1 construct: up-regulate the expression of endogenous IDO1 under the induction of human IFN-γ; endogenous in cells; host or cells: HeLa cells stimulated with human IFN-γ
Kind of assay: Inhibitory activity test at cellular level: IFN-γ-induced HeLa cells, kynurenine colour reaction. The conditions noted are these: 48 hours; for inhibition at 0.1 µM: 50 ng/ml human IFN-γ, 200 μM L-tryptophan, each test compound 100 nM, read-out: hIDO1-cell base inhibition rate (%); for EC50: human IFN-γ, read-out: hIDO1-cell base EC50. The assay is classed as cell-based. From the text: The subject of this assay was to comprehensively evaluate different compounds on their enzymatic inhibitory activity in vitro and on cell models against human indoleamine 2,3-dioxygenase 1 (hIDO1).
In the present application, the inventors used Hela cells expressing IDO1 induced by IFN-γ as a model, to test the IDO1 inhibitory activity of the compounds at the cellular level.
HeLa cells are human cervical cancer cell lines, which can up-regulate the expression of endogenous IDO1 under the induction of human IFN-γ. By adding the substrate L-tryptophan to cell culture medium, the enzymatic catalysis product kynurenine in cell supernatant was detected. In this experiment, the cultured Hela cells were used and co-incubated with different concentrations of test compounds under stimulation of human IFN-γ for a specified period of time, and the color reaction method of enzyme product and p-dimethylaminobenzaldehyde was used to detect the effect on IDO enzyme activity of cells treated by the test compounds.
(1) Hela cells were inoculated into 96-well culture plates at an appropriate concentration (about 20,000 cells/well). […] The cells were continuously cultured for 48 hours before detection.
(2) 200 μL of the supernatant in the culture well was pipetted out, added with 40 μL of the pre-prepared 30% (w/v) trichloroacetic acid solution, and reacted at 65° C. for 20 minutes, and then centrifuged at 12000 rpm for 15 minutes.
(3) 100 μL of the supernatant after centrifugation was pipetted out, added into a 96-well flat bottom plate, then added with an equal volume of 2% p-dimethylaminobenzaldehyde in glacial acetic acid and mixed well, and stood at room temperature for 10 minutes.
(4) microplate reader (ELX800NB) was used to detect the absorbance value of each well, and the detection wavelength was 492 nm.
In addition, after the cell enzyme activity inhibition rates of test compounds with different concentration gradients were separately calculated, their cell enzyme activity half inhibition concentrations (EC50) were calculated by using EC50 calculator.
According to the above-mentioned experimental method, the compounds of the present application were subjected to IDO1 enzymatic evaluation at cytological level (the concentration of each test compound was all 100 nM).
According to the above-mentioned experimental method, the compound of the present application was subjected to hIDO1-cell base EC50 detection.

Structures are written as SMILES.

T1 sequence (P14902 whole entry): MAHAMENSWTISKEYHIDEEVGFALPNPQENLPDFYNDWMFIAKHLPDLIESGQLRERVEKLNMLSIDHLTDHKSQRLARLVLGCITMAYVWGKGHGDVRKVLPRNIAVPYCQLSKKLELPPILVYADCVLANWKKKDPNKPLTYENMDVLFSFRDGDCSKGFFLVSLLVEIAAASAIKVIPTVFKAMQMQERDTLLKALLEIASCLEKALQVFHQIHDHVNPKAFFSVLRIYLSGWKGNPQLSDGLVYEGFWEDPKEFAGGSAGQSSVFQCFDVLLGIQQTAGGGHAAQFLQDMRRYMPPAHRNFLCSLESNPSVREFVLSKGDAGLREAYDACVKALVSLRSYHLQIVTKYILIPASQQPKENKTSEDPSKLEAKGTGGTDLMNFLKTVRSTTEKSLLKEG

As for `CC(C(=O)Nc1ccccc1)N1CC2C(C1)C2Nc1ccnc2ccc(F)cc12` (stereo not drawn) [Example 74, 2-(6-((6-fluoroquinolin-4-yl)amino)-3-aza-bicyclo[3.1.0]hexan-3-yl)-N-phenyl-propionamide], the inhibition at 0.1 µM amounted to 85%.
On the same count and under the same terms, for `CC(C(=O)Nc1ccccc1)N1CCC2CN(c3ccnc4ccc(F)cc34)CC2C1` (stereo not drawn) [Example 67, 2-(2-(6-fluoroquinolin-4-yl)octahydro-5H-pyrrolo[3,4-c]pyridin-5-yl)-N-phenyl-propionamide] the value was 94%; for `O=C(/C=C/c1ccc(Cl)cc1)N1CC2(CC(Oc3ccnc4ccc(F)cc34)C2)C1` [Example 7, (E)-3-(4-chlorophenyl)-1-(6-((6-fluoroquinolin-4-yl)oxy)-2-aza-spiro[3.3]heptan-2-yl)prop-2-en-1-one], 31%.
On to `CC(C(=O)Nc1ccc(Cl)cc1)N1CC2(CC(Oc3ccnc4ccc(F)cc34)C2)C1` (stereo not drawn) [Example 39, N-(4-chlorophenyl)-2-(6-((6-fluoroquinolin-4-yl)oxo)-2-aza-spiro[3.3]heptan-2-yl)propionamide], for which the inhibition at 0.1 µM is 91% and the EC50 was found to be 20 nM.
For the compound `O=C(Nc1ccc2c(c1)OCCO2)N1CC2(CC(Oc3ccnc4ccc(F)cc34)C2)C1` [Example 33, N-(2,3-dihydrobenzo[b][1,4]dioxin-6-yl)-6-((6-fluoroquinolin-4-yl)oxy)-2-aza-spiro[3.3]heptan-2-carboxamide], the inhibition at 0.1 µM is 10%.
On the same count and under the same terms, next, `O=C(Nc1ccc(Cl)cc1)C(CO)N1CC2C(C1)C2Nc1ccnc2ccc(F)cc12` (stereo not drawn) [Example 78, N-(4-chlorophenyl)-2-(6-((6-fluoroquinolin-4-yl)amino)-3-aza-bicyclo[3.1.0]hexan-3-yl)-3-hydroxypropionamide]: 42%; `CC(C(=O)NC1CCCCC1)N1CC2(CC(Oc3ccnc4ccc(F)cc34)C2)C1` (stereo not drawn) [Example 40, N-cyclohexyl-2-(6-((6-fluoroquinolin-4-yl)oxo)-2-aza-spiro[3.3]heptan-2-yl)propionamide]: 19%.
With `O=C(Nc1ccc(Cl)cc1)N1CC2(CC(Oc3ccnc4ccccc34)C2)C1` [Example 23, N-(4-chlorophenyl)-6-(quinolin-4-yloxy)-2-aza-spiro[3.3]heptan-2-carboxamide], the inhibition at 0.1 µM came to 74% and the half-maximal effective concentration (EC50) stood at 26 nM.
As to `O=C(Nc1ccc(Cl)cc1)N1CC2(CC(Oc3nccc4ccccc34)C2)C1` [Example 36, N-(4-chlorophenyl)-6-(isoquinolin-1-yloxy)-2-aza-spiro[3.3]heptan-2-carboxamide], the inhibition at 0.1 µM was determined as 26%.
The same measure, in the same setting: next, `O=C(Nc1ccc(Cl)cc1)N1CC2(CCC(Nc3ccnc4ccc(F)cc34)C2)C1` (stereo not drawn) [Example 19]: 61%.
On the same count and under the same terms, next, `CC(C(=O)Nc1ccc(Cl)cc1)N1CC2CC(Nc3ccnc4ccc(F)cc34)CC2C1` (stereo not drawn) [Example 83, N-(4-chlorophenyl)-2-(5-((6-fluoroquinolin-4-yl)amino)hexahydro-cyclopenta[c]pyrrol-2(1H)-yl)propionamide]: 45%.
As to `O=C(Nc1ccc(F)cc1)N1CC2(CC(Oc3ccnc4ccc(F)cc34)C2)C1` [Example 16, N-(4-fluorophenyl)-6-((6-fluoroquinolin-4-yl)oxy)-2-aza-spiro[3.3]heptan-2-carboxamide], the inhibition at 0.1 µM was determined as 85% and the 50% effective concentration (EC50) was 33 nM.
For `COc1cccc(NC(=O)N2CC3(CC(Oc4ccnc5ccc(F)cc45)C3)C2)c1` [Example 4, N-(3-methoxyphenyl)-6-((6-fluoroquinolin-4-yl)oxy)-2-aza-spiro[3.3]heptan-2-carboxamide], the inhibition at 0.1 µM was 49%.
Same read-out and setting: next, `O=C(Nc1ccc2c(c1)CCO2)N1CC2(CC(Oc3ccnc4ccc(F)cc34)C2)C1` [Example 32, N-(2,3-dihydrobenzofuran-5-yl)-6-((6-fluoroquinolin-4-yl)oxy)-2-aza-spiro[3.3]heptan-2-carboxamide]: 44%.
Still for that read-out and setting: next, `COc1ccc(NC(=O)N2CC3(CC(Oc4ccnc5ccc(F)cc45)C3)C2)cc1` [Example 5, N-(4-methoxyphenyl)-6-((6-fluoroquinolin-4-yl)oxy)-2-aza-spiro[3.3]heptan-2-carboxamide]: 63%; `COc1cccc(NC(=O)C(C)N2CCC3CN(c4ccnc5ccc(F)cc45)CC3C2)c1` (stereo not drawn) [Example 65, 2-(2-(6-fluoroquinolin-4-yl)octahydro-5H-pyrrolo[3,4-c]pyridin-5-yl)-N-(3-methoxyphenyl)propionamide]: 59%.
Consider `COC/C=C/c1ccc(NC(=O)N2CC3(CC(Oc4ccnc5ccc(F)cc45)C3)C2)cc1` [Example 10], for which the inhibition at 0.1 µM worked out at 90%.
For `CC(C(=O)Nc1ccc(Cl)cc1)N1CC2(CC(N(C)c3ccnc4ccc(F)cc34)C2)C1` (stereo not drawn) [Example 59, N-(4-chloro)-2-(6-((6-fluoroquinolin-4-yl)(methyl)amino)-2-aza-spiro[3.3]heptan-2-yl)propionamide], the inhibition at 0.1 µM is 85% and the 50% effective concentration (EC50) is 25 nM.
`O=C(c1ccc(Cl)cc1)N1CC2(CC(Oc3ccnc4ccc(F)cc34)C2)C1` [Example 6, (4-chlorophenyl)(6-((6-fluoroquinolin-4-yl)oxy)-2-aza-spiro[3.3]heptan-2-yl) methanone]: the inhibition at 0.1 µM is 87% and the 50% effective concentration (EC50) came to 36 nM.
For `O=C(Nc1ccc(F)cc1)N1CC2C(C1)C2Oc1ccnc2ccc(F)cc12` (stereo not drawn) [Example 30, N-(4-fluorophenyl)-6-((6-fluoroquinolin-4-yl)oxy)-3-aza-cyclo[3.1.0]hexan-3-carboxamide], the inhibition at 0.1 µM is 11%.
Turning to `CC(C(=O)Nc1ccc(Cl)cc1)N1CCC2CN(c3ccnc4ccc(F)cc34)CC2C1` (stereo not drawn) [Example 64, N-(4-chlorophenyl)-2-(2-(6-fluoroquinolin-4-yl)octahydro-5H-pyrrolo[3,4-c]pyridin-5-yl)propionamide], the inhibition at 0.1 µM stood at 96%.
On the same count and under the same terms, next, `CC(C(=O)Nc1cccnc1)N1CC2(CC(Oc3ccnc4ccc(F)cc34)C2)C1` (stereo not drawn) [Example 41, 2-(6-((6-fluoroquinolin-4-yl)oxo)-2-aza-spiro[3.3]heptan-2-yl)-N-(pyridin-3-yl)propionamide]: 23%.
On the same count and under the same terms, next, `COc1ccc(NC(=O)C(C)N2CCC3CN(c4ccnc5ccc(F)cc45)CC3C2)cc1` (stereo not drawn) [Example 66, 2-(2-(6-fluoroquinolin-4-yl)octahydro-5H-pyrrolo[3,4-c]pyridin-5-yl)-N-(4-methoxyphenyl)propionamide]: 90%; `COc1ccc(NC(=O)C(C)N2CC3C(C2)C3Nc2ccnc3ccc(F)cc23)cc1` (stereo not drawn) [Example 73, 2-(6-((6-fluoroquinolin-4-yl)amino)-3-aza-bicyclo[3.1.0]hexan-3-yl)-N-(4-methoxyphenyl)propionamide]: 83%.
Regarding `CC(C(=O)Nc1ccc(Cl)cc1)N1CC2C(C1)C2Oc1ccnc2ccc(F)cc12` (stereo not drawn) [Example 49, N-(4-chlorophenyl)-2-(6-((6-fluoroquinolin-4-yl)oxo)-3-aza-bicyclo[3.1.0]hexan-3-yl)propionamide], the inhibition at 0.1 µM turned out to be 99% and the concentration for a half-maximal effect (EC50) was found to be 5 nM.
For the compound `CC(C(=O)Nc1ccc(Cl)cc1)N1CC2(CC(Nc3ccnc4ccc(F)cc34)C2)C1` (stereo not drawn) [Example 54, N-(4-chlorophenyl)-2-(6-((6-fluoroquinolin-4-yl)amino)-2-aza-spiro[3.3]heptan-2-yl)propionamide], the inhibition at 0.1 µM is 69%.
On the same count and under the same terms, for `O=C(CNc1ccccc1)N1CC2(CC(Oc3ccnc4ccc(F)cc34)C2)C1` [Example 11, 1-(6-((6-fluoroquinolin-4-yl)oxy)-2-aza-cyclo[3.3]heptan-2-yl)-2-(anilino)ethyl-1-one] the value was 25%; for `O=C(Nc1ccc(Cl)cc1)N1CC2(CC(Oc3cnc4ccccc4c3)C2)C1` [Example 26, N-(4-chlorophenyl)-6-(quinolin-3-yloxy)-2-aza-spiro[3.3]heptan-2-carboxamide], 15%; for `O=C(Nc1ccc(Cl)cc1)N1CC2C(C1)C2Oc1ccnc2ccc(F)cc12` (stereo not drawn) [Example 31, N-(4-chlorophenyl)-6-((6-fluoroquinolin-4-yl)oxy)-3-aza-cyclo[3.1.0]hexan-3-carboxamide], 46%.
On the same count and under the same terms, for `O=C(Nc1ccc(Cl)cc1)N1CC2(CC(Oc3ncnc4ccccc34)C2)C1` [Example 29, N-(4-chlorophenyl)-6-(quinazolin-4-yloxy)-2-aza-spiro[3.3]heptan-2-carboxamide] the value was 10%.
